Source: US9283037B2, “Laser microporator” (PANTEC BIOSOLUTIONS AG, priority 2006, dated 2016)

Assay: Serum concentration of drug over time after transdermal patch application onto laser-microporated skin (FIG. 9a-9b)
Type: in vivo, human
Conditions: over about two hours
Description: The drug is entering the permeation surface by passive diffusion. The amount of drug entering the permeation surface is mainly determined by the permeation surface A(t) over time. Therefore, the serum concentration as a function of time can be determined by an appropriate poration of the skin 1 with an initial microporation at time TP.
FIG. 9a to 9b show the administration of the same amount of drug, for example 100 mg acetylsalicylic acid, the drug being arranged on the skin 1 as disclosed in FIG. 5e. Depending on the permeation surface A(t) as a function of time, the level of the serum concentration as well as the time period within which the drug is released, can be predescribed. In FIG. 9a the permeation surface A(t) is chosen such that the maximal serum concentration is about 25 g/l over a short period of time of about two hours. […] A further advantage is that the same amount of drug, e.g. the same patch, applied onto the skin 1, causes a different serum concentration, depending only on the function of the permeation surface A over time. This allows administering the same drug in different ways. This also allows administering the same drug in an individual way, in that the permeation surface is created depending on individual parameters of the person the drug is applied to.

maximal serum concentration (FIG. 9a, 100 mg acetylsalicylic acid in patch on microporated skin, transdermal application, chosen permeation surface A(t)): about 25 g/l
maximal serum concentration (FIG. 9b, fast application (turbo), same amount of drug (100 mg) in patch on microporated skin): about 30 g/l
SMILES: CC(=O)Oc1ccccc1C(=O)O [acetylsalicylic acid]
